# Experimental data reported in paper PMC6114901, “An automated screening method for detecting compounds with goitrogenic activity using transgenic zebrafish embryos” (PLoS ONE, 2018).
# Read-outs that look alike come from different tables or passages of the source.
# Assays:
# [1] = test system: thyroglobulin (tg:mCherry reporter gene); assay: animal or person; conditions: for EC50: Danio rerio, read-out: EC50 (tg:mCherry induction)
# Procedure: In order to avoid interference of test chemicals with early thyroid gland development, zebrafish embryos were cultured in exposure medium until 48 hours post fertilization (hpf). Subsequently, they were exposed to seven known thyroid endocrine disrupters for 3 days (48 to 120 hpf). The non-goitrogenic compound 3,4-dichloroaniline, that is used as reference compound in the zebrafish acute embryo toxicity test was used as negative control. […] No solvents were used. […] Five concentrations and one control were tested per compound and replicate. In the second replicate the range of concentration was adjusted to improve fitting of concentration-response curves. […] Given the lack of appropriate spectral properties stability of exposure concentrations was not analysed for potassium perchlorate. Embryos were kept in the incubator at 26°C and a 14:10 hours light:dark cycle. The exposure was conducted in crystallisation dishes covered with watchmaker glasses with 30 embryos in 30 ml exposure medium (for exposure medium refer to [26]).
# Embryos were positioned ventrally toward the microscope objective. Per embryo a bright field image, an autofocus fluorescence image and a Z-stack of 9 images were obtained. The Z-stack was required in case of autofocus failure and manual selection of the focal plane. Fluorescence images were obtained with 400 ms of fluorescent light exposure at maximal light intensity and a gain of 1. […] However, care was taken, that at least 10 images per concentration and replicates were assessed. To avoid a time bias during the analysis the sequence of wells for analysis was arranged in order to obtain a uniform distribution over the entire period of analysis.
# The images were analysed using a KNIME workflow (Version 3.3.3., [29]) with the extension “KNIME image processing”. In brief, images were loaded into the workflow and the background was removed automatically using the “rolling ball” procedure of the image J plugin (rolling ball size set to 50 pixels). Subsequently the area containing the thyroid gland was manually selected by drawing a rectangle around the appropriate region using the interactive annotation node. […] If possible the autofocus images were used. In case that the thyroid gland was out of focus due to the presence of autofluorescing pigment cells, an appropriate image from the Z-stack was selected. All subsequent steps were conducted without any user interaction. […] Finally the sum of pixel (reflecting area of the thyroid gland and intensity of fluorescence) was calculated for the labeled area and used as a proxy of fluorescence intensity (see Fig 1 for an overview of the workflow). For each replicate the sum was of pixels was normalized by setting controls to the value of one. For data of individual embryos see S4 Table. The KNIME workflow used for image analysis is provided as supplement file (S1 Workflow).
# To characterize the potency of the investigated goitrogenic compounds, we calculated EC50 values of tg:mcherry fluorescence using the pixel sum obtained from image analysis. For each replicate the fluorescence intensity was normalized by dividing the mean fluorescence intensity of each concentration with the mean control fluorescence intensity. Concentration-response curves of tgmcherry fluorescence were fitted to the data using the Hill-slope equation (Eq 1) and used to estimate EC50 values.
# The parameter Min was set to 1 and the slope (p) and the maximum fluorescence (Max) were estimated.
# [2] = test system: thyroglobulin (tg:mCherry reporter gene); parameters: method as in PMID 25962731; conditions: manual positioning and image analysis; cited from earlier work
# [3] = test system: zebrafish embryos; conditions: read-out: LC50 (48–120 hpf); mortality; ref Fetter et al. [22]; cited from earlier work
# [4] = ref chemspider (http://www.chemspider.com); cited from earlier work
# [5] = test system: thyroid hormone levels (T4); conditions: cited from earlier work; for EC50: read-out: EC50 T4 reduction, reduction of thyroid hormone levels (immunostaining)
# [6] = in vivo; conditions: zebrafish, in vivo, LC50 (48–120 hpf), mortality, embryos exposed 48–120 hpf
# Procedure: (§1) Fish embryo acute toxicity tests were performed similar as described previously, using 10 or 25 embryos per concentration and replicate exposed in crystallization dishes from 48 to 120 hpf. No exchange of exposure media was performed. Lethality was identified by coagulation, missing heartbeat, a non–detached tail and/or missing of somites. Raw data for mortality and phenotypic assessment are provided as S1 Table. Concentration-response curves for mortality are shown in S2 Fig.
# [7] = test system: zebrafish embryos; assay: in vivo
# Procedure: as §1
# [8] = 72 hpf, 987.65 µmol/L, replicate 2, 10 embryos
# [9] = 72 hpf, 1481.48 µmol/L, replicate 2, 10 embryos
# [10] = 72 hpf, 2222.22 µmol/L, replicate 2, 10 embryos
# [11] = 72 hpf, 3333.33 µmol/L, replicate 2, 10 embryos
# [12] = 72 hpf, 5000.00 µmol/L, replicate 2, 10 embryos
# [13] = 96 hpf, 987.65 µmol/L, replicate 2, 10 embryos
# [14] = 96 hpf, 1481.48 µmol/L, replicate 2, 10 embryos
# [15] = 96 hpf, 2222.22 µmol/L, replicate 2, 10 embryos
# [16] = 96 hpf, 3333.33 µmol/L, replicate 2, 10 embryos
# [17] = 96 hpf, 5000.00 µmol/L, replicate 2, 10 embryos
# [18] = 120 hpf, 937.50 µmol/L, replicate 1, 25 embryos
# [19] = 120 hpf, 987.65 µmol/L, replicate 2, 10 embryos
# [20] = 120 hpf, 1481.48 µmol/L, replicate 2, 10 embryos
# [21] = 120 hpf, 1875.00 µmol/L, replicate 1, 25 embryos
# [22] = 120 hpf, 2222.22 µmol/L, replicate 2, 10 embryos
# [23] = 120 hpf, 3333.33 µmol/L, replicate 2, 10 embryos
# [24] = 120 hpf, 3750.00 µmol/L, replicate 1, 25 embryos
# [25] = 120 hpf, 5000.00 µmol/L, replicate 2, 10 embryos
# [26] = 120 hpf, 7500.00 µmol/L, replicate 1, 25 embryos
# [27] = 120 hpf, 15000.00 µmol/L, replicate 1, 25 embryos
smiles,measurement,setting,value
"Cn1cc[nH]c1=S [Methimazole, methimazole]",EC50,[1],279 µM
same,BMD 20,"[1]; zebrafish, in vivo",186 µM
same,Slope,"[1]; zebrafish, in vivo",3.3
same,TDI,"[1]; zebrafish, in vivo",103
same,EC50,[2],551 µM
same,LC50,[3],28800 µM
same,Log D (pH 7.4),[4],-0.11
same,EC50,[5]; ref Thienpont et al. [13],290 µM
same,TDI (T4),"[5]; zebrafish, in vivo",75
"Oc1cccc(O)c1 [Resorcinol, resorcinol]",EC50,[1],3.4 µM
same,BMD 20,"[1]; zebrafish, in vivo",0.663 µM
same,Slope,"[1]; zebrafish, in vivo",0.78
same,TDI,"[1]; zebrafish, in vivo",1529
same,effect on tg:mCherry fluorescence,"[1]; zebrafish, in vivo",weaker induction or repression of fluorescence
same,LC50,[6],5200 µM
same,No Surviving,[7]; [8],10
same,No hatched,[7]; [8],9
same,No Surviving,[7]; [9],10
same,No hatched,[7]; [9],10
same,No Surviving,[7]; [10],10
same,No hatched,[7]; [10],9
same,No Surviving,[7]; [11],10
same,No hatched,[7]; [11],10
same,Total Sublethal,[7]; [11],6
same,Ydef (yolk deformation),[7]; [11],6
same,No Surviving,[7]; [12],10
same,No hatched,[7]; [12],10
same,Total Sublethal,[7]; [12],8
same,Ydef (yolk deformation),[7]; [12],8
same,No Surviving,[7]; [13],10
same,No hatched,[7]; [13],10
same,No Surviving,[7]; [14],10
same,No hatched,[7]; [14],10
same,Total Sublethal,[7]; [14],1
same,Ydef (yolk deformation),[7]; [14],1
same,No Surviving,[7]; [15],10
same,No hatched,[7]; [15],10
same,Total Sublethal,[7]; [15],2
same,Ydef (yolk deformation),[7]; [15],2
same,No Surviving,[7]; [16],10
same,No hatched,[7]; [16],10
same,Total Sublethal,[7]; [16],5
same,Ydef (yolk deformation),[7]; [16],2
same,mch (malformation of chorda/scoliosis),[7]; [16],5
same,No Surviving,[7]; [17],10
same,No hatched,[7]; [17],10
same,Total Sublethal,[7]; [17],10
same,Ydef (yolk deformation),[7]; [17],7
same,nobc (no blood circulation),[7]; [17],2
same,nomov (no spontaneous movement),[7]; [17],10
same,No Surviving,[7]; [18],25
same,k/f (coagulated),[7]; [18],0
same,No Surviving,[7]; [19],10
same,No hatched,[7]; [19],10
same,EdY / EdP (heart or yolk sac edema),[7]; [20],1
same,No Surviving,[7]; [20],10
same,No hatched,[7]; [20],10
same,Total Sublethal,[7]; [20],1
same,Ydef (yolk deformation),[7]; [20],1
same,No Surviving,[7]; [21],25
same,k/f (coagulated),[7]; [21],0
same,nomov (no spontaneous movement),[7]; [21],25
same,EdY / EdP (heart or yolk sac edema),[7]; [22],1
same,No Surviving,[7]; [22],10
same,No hatched,[7]; [22],10
same,Total Sublethal,[7]; [22],2
same,Ydef (yolk deformation),[7]; [22],2
same,No Surviving,[7]; [23],10
same,No hatched,[7]; [23],10
same,Total Sublethal,[7]; [23],5
same,Ydef (yolk deformation),[7]; [23],5
same,mch (malformation of chorda/scoliosis),[7]; [23],4
same,EdY / EdP (heart or yolk sac edema),[7]; [24],25
same,No Surviving,[7]; [24],25
same,Total Sublethal,[7]; [24],25
same,k/f (coagulated),[7]; [24],0
same,EdY / EdP (heart or yolk sac edema),[7]; [25],8
same,No Surviving,[7]; [25],7
same,No hatched,[7]; [25],10
same,Total Sublethal,[7]; [25],7
same,Ydef (yolk deformation),[7]; [25],8
same,mch (malformation of chorda/scoliosis),[7]; [25],3
same,nobc (no blood circulation),[7]; [25],10
same,nohb (no heartbeat),[7]; [25],3
same,nomov (no spontaneous movement),[7]; [25],10
same,No Surviving,[7]; [26],0
same,k/f (coagulated),[7]; [26],25
same,No Surviving,[7]; [27],0
same,k/f (coagulated),[7]; [27],25
same,LC10,"[7]; mortality after 72 h of exposure, S2 Fig, unit not given, in µM",4701
same,Slope,"[7]; mortality concentration-response curve, 72 h of exposure",21.9
same,Log D (pH 7.4),[4],0.86
same,EC50,[5]; ref Thienpont et al. [13],82 µM
same,TDI (T4),"[5]; thyroid disruption index based on T4 reduction, ref Thienpont et al. [13]",62
